Patent publication US6395745B1, “Alkaloid halide salts of swainsonine and methods of use” (priority 1997, dated 2002)

Experiments:
[1] = target: T1, Golgi mannosidase II in MDAY-D2 tumor cells (Mus musculus, UniProt P27046); assay: L-PHA cell assay for inhibition of mannosidase II in cells (alkaline phosphatase readout); assay type: cell-based, murine
T1 construct: endogenous in cells; host or cells: MDAY-D2 tumor cells
T1 sequence (P27046 1-1150): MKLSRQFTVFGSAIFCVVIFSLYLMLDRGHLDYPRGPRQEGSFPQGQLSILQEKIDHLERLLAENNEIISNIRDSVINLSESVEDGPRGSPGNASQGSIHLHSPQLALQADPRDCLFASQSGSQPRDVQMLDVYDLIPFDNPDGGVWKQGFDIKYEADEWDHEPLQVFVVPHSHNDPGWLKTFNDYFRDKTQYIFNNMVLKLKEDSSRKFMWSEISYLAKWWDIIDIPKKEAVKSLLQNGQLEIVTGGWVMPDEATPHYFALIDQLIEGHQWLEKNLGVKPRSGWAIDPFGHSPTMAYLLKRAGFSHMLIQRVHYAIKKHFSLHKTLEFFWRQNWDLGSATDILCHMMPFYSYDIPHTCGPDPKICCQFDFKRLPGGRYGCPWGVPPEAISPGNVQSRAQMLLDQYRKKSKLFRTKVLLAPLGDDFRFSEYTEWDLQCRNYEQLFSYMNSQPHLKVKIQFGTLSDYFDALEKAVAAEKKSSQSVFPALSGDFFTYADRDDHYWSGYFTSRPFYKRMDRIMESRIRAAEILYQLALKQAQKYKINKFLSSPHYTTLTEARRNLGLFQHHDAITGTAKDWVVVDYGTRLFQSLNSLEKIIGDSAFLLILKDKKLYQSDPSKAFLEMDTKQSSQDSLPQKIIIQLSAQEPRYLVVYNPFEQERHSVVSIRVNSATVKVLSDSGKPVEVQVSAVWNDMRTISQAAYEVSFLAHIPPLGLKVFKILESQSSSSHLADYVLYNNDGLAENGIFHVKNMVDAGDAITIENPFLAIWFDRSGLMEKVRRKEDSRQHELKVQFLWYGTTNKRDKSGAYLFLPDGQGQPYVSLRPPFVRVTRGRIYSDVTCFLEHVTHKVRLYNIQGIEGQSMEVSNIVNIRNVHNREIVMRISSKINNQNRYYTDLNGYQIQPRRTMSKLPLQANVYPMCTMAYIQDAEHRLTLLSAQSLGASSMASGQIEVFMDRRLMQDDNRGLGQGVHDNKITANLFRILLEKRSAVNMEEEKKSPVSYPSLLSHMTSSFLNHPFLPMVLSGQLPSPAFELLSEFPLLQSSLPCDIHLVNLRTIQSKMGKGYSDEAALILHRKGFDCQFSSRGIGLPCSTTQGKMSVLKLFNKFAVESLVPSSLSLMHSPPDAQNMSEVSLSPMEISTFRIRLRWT
Procedure: The test compound swainsonine hydrochloride is prepared by 0.5 serial dilution of a 40 μM stock in 50 μl of 5% fetal bovine serum (FBS) in minimum essential medium (MEM). To 50 μl of diluted test samples in 96 well plates, 10,000 MDAY-D2 tumor cells in 50 μl of 5% FBS in MEM is added to each well. The samples are incubated at 37° C. overnight in a 5% CO2 incubator. Test wells are prepared in duplicate for the addition of 25 μl/well of either 5% FBS in MEM or 5% FBS in MEM containing 100 μg/ml of L-PHA. Samples are again incubated at 37° C. overnight in a 5% CO2 incubator. The viability and/or proliferation of the cells in each well is measured using phenazine methylsulfate (PMS) and (3(4,5-dimethylthiazol-2-yl-5-(3-carboxymethoxyphenyl)-2,4,sulfophenyl)-2H tetrazolium salt (“MTS”) as described in the instructions of the Promega CellTiter 96 AQ kit. The absorption is read at 490 nm. The loss of L-PHA toxicity is directly related to entry of the drug into the cells and to inhibition of Golgi mannosidase II, and loss of L-PHA binding carbohydrate structures on the cells surface.
Cells. […]
Alkaline Phosphatase Assay. […] After 15-30 min of colour development, absorbance of the chromogenic product para-nitrophenol was measured at […] using a multiwell scanning photometer (Thermomax Multiplate Reader, Molecular Devices). […]

[2] = system: STAT1; assay: STAT1 level and activation in mice (Western blot, immunoblotting); assay type: in vivo, DBA/2 mice
Procedure: To measure the level and activation of STATs, DBA/2 mice are treated for 6-9 days with 20 μg/mouse/day of swainsonine hydrochloride followed by a single intraperitoneal (i.p) injection of either sterile saline or 100 μg of poly IC (i.e., dsRNA, a surrogate for virus) in sterile saline. Two hours later an optimal time for STAT activation, spleens of the mice are homogenized and cytosolic and nuclear cell extracts are prepared. STAT protein levels are measured in the cytosolic and nuclear fractions by Western blot analysis. STAT phosphorylation (i.e. activation) is measured following immunoprecipitation using anti-phosphotyrosine antibodies.
DBA/2 mice received daily ip injections of SW hydrochloride (20 μg/day) for 10 days. On day 11 the mice were injected with Poly IC (100 μg/mouse) or an equivalent volume of PBS 2 h before being sacrificed. Spleen and liver tissues were collected and immediately frozen in liquid nitrogen. Nuclear extracts were prepared and analyzed (8 μg) by immunoblotting with the indicated antibodies. […] Cytosol extracts were prepared and analyzed (20 μg) by immunoblotting with the indicated antibodies. Spleen nuclear extracts were prepared and analyzed (8 μg) by immunoblotting with anti-phosphotyrosine antibodies.

Structure (SMILES): Cl.O[C@H]1[C@H]2[C@H](O)CCCN2C[C@@H]1O [swainsonine hydrochloride, (−)-(1S,2S,8R,8aR)-1,2,8-trihydroxyoctahydro-indolizidine hydrochloride salt]
- IC50 [1]: 57 ± 10 nM
- activation of STAT1 in spleen ([2]; 20 μg/day ip for 10 days, then Poly IC 100 μg/mouse, FIG. 10A): increases the activation
- STAT1 cytosolic protein levels ([2]; 20 μg/day ip, spleen): enhanced
